Key:
HepG2 = experiment: CellTiterGlo cytotoxicity assay in HepG2; format: cell-based; details: 24h after compound addition
Description: (§1) For examination of cytotoxicity in these cancer cell lines the commercial available CellTiterGlo® Reagent (Promega, USA) was used according to the manufactor.
(§2) Compounds were applied to Hek293T (denoted (1)) or HepG2 (denoted (2)), cultured in Dulbecco's Modified Eagles Medium, supplemented with 10% fetal calf serum and 1% penicillin/streptomycin. Cells were grown in T75 flasks at 37 °C, 5% CO2 and trypsinized when 60-80% confluent by adding 2 ml of 0.25% Trypsin-EDTA solution. Cells were then re-suspended into culture medium yielding approx. 4000 cells (1) or 4500 cells (2), suspended in 30 microl medium. 48h after cell seeding, compounds were added to yield the desired final concentrations. 24h after compound addition cytotoxicity was evaluated. For this purpose the media was removed and CellTiterGlo® was added according to the manufactors manual. In this assay the luciferase emission readout is directly correlated with the cellular amount of ATP, low luciferase emission thus is reflecting cytotoxicity of a compound. For the evaluation of the IC50 the compound was applied in increasing concentrations yielding final concentrations per well of 5nM - 100 microM.

Hek293T = experiment: CellTiterGlo cytotoxicity assay in Hek293T; format: cell-based; details: 24h after compound addition
Description: as §1, §2

HFF-1 = experiment: Cell line specific cytotoxicity, HFF-1 fibroblasts; format: cell-based, human; details: 10 microM; HFF-1 cell line
Description: For examination of cell line-specific cytotoxicity, compounds were applied to human colorectal cancer cells (HCT116, denoted (1); SW480, denoted (2); Dld-1, denoted (3)) and human fibroblasts (HFF-1, denoted (4); HS-68, denoted (5)), cultured in Mc Coy's (1) and Dulbecco's Modified Eagles Medium ((2)-(5)), supplemented with 10% ((1)-(3)) and 20% ((4), (5)) fetal calf serum and 1% penicillin/streptomycin. Cells were grown in T75 flasks at 37 °C, 5% CO2 and trypsinized when 60-80% confluent by adding 2 ml of 0.25% Trypsin-EDTA solution. Cells were then re-suspended into culture medium yielding approx. 750 cells, suspended in 45 microl medium, were plated into each well of a black 384-well plate for fluorescence imaging experiments. […] Compound incubation was terminated by (a) fixation and (b) permeabilisation of cells, followed by (c) fluorescence labeling of cell nuclei for cytometric quantification or by immunocytochemistry for microscopic evaluation of cell morphology. […]
Cell line-specific cytotoxicity was quantified by counting the number of Hoechst labeled nuclei per well of a 384-well plate using a plate cytometer. Data obtained with the cytometer was analysed using standard data analysis software.
Identified hits were further evaluated by visual inspection of fluorescence micrographs obtained from imaging using a conventional fluorescence microscope.

Row | SMILES | Normalized toxicity values (HepG2) (HepG2; 0.005 microM) | Normalized toxicity values (HepG2) (HepG2; 0.015 microM) | Normalized toxicity values (HepG2) (HepG2; 0.046 microM) | Normalized toxicity values (HepG2) (HepG2; 0.137 microM) | Normalized toxicity values (HepG2) (HepG2; 0.412 microM) | Normalized toxicity values (HepG2) (HepG2; 1.235 microM) | Normalized toxicity values (HepG2) (HepG2; 3.704 microM) | Normalized toxicity values (HepG2) (HepG2; 11.111 microM) | Normalized toxicity values (HepG2) (HepG2; 33.333 microM) | Normalized toxicity values (HepG2) (HepG2; 100.000 microM) | Normalized toxicity values (Hek293T) (Hek293T; 0.005 microM) | Normalized toxicity values (Hek293T) (Hek293T; 0.015 microM) | Normalized toxicity values (Hek293T) (Hek293T; 0.046 microM) | Normalized toxicity values (Hek293T) (Hek293T; 0.137 microM) | Normalized toxicity values (Hek293T) (Hek293T; 0.412 microM) | Normalized toxicity values (Hek293T) (Hek293T; 1.235 microM) | Normalized toxicity values (Hek293T) (Hek293T; 3.704 microM) | Normalized toxicity values (Hek293T) (Hek293T; 11.111 microM) | Normalized toxicity values (Hek293T) (Hek293T; 33.333 microM) | Normalized toxicity values (Hek293T) (Hek293T; 100.000 microM) | also measured
1 | CCOC(=O)c1c(C)nc2c(c(N3CCN(Cc4ccccc4F)CC3)nc(=O)n2-c2ccccc2)c1-c1ccccc1 [Example 150] | 1.1325 | 1.1350 | 1.0275 | 1.0350 | 0.9625 | 0.9870 | 1.0658 | 1.0800 | 1.1425 | 1.2175 | 1.1200 | 1.0780 | 1.0735 | 1.0278 | 1.0553 | 0.9703 | 1.1975 | 1.2900 | 1.3025 | 1.5500 | –
2 | CCOC(=O)c1c(C)nc2c(c(N3CCN(C/C=C/c4ccccc4)CC3)nc(=O)n2-c2ccccc2)c1-c1ccccc1 [Example 153, 7-Methyl-2-oxo-1,5-diphenyl-4-[4-((E)-3-phenyl-allyl)-piperazin-1-yl]-1,2-dihydro-pyrido[2,3-d]pyrimidine-6-carboxylic acid ethyl ester] | 1.0700 | 1.0658 | 0.9725 | 0.9743 | 0.9480 | 0.9543 | 1.1225 | 1.2725 | 1.2650 | 0.0718 | 1.0725 | 1.0650 | 1.0425 | 0.9703 | 1.0800 | 1.0623 | 1.1125 | 1.1475 | 1.1375 | 0.0290 | Effect on normal cells (HFF-1) (HFF-1): not affected
3 | CCOC(=O)c1c(C)nc2c(c(N3CCN(C(c4ccc(F)cc4)c4ccc(F)cc4)CC3)nc(=O)n2-c2ccccc2)c1-c1ccccc1 [Example 157] | 1.1125 | 1.0775 | 1.1275 | 1.0175 | 0.9413 | 0.9785 | 0.9853 | 1.0043 | 1.1100 | 1.1575 | 1.1275 | 1.0600 | 1.1075 | 1.0975 | 0.9535 | 0.9633 | 1.0078 | 1.1475 | 1.3825 | 1.5650 | –

Reference: patent EP2266984A1, “Pyrido[2,3-d]pyrimidines as Wnt antagonists for treatment of cancer and arthritis” (Deutsches Krebsforschungszentrum Stiftung des öffentlichen …, priority 2009, dated 2010)
